Source: US8158587B2, “Compound having histone deacetylase-inhibiting activity, and pharmaceutical composition comprising the compound as an active ingredient” (Kyushu Institute of Technology, priority 2006, dated 2012)

Experiments:
human HDAC4 = molecular target: T1, human HDAC4 (Homo sapiens, UniProt P56524); assay: HDAC-inhibiting activity, coumarin-labeled acetylated histone peptide assay; format: biochemical; conditions: human HDAC4 from transfected 293T cells; 37° C., 30 minutes; read-out: HDAC-inhibiting activity IC50 HDAC4
T1 construct: made in house; host or cells: 293T cells (transient transfection, anti-FLAG immunoprecipitation, FLAG peptide elution)
Protocol: In carrying out HDAC-inhibiting activity measurements, HDAC solutions were prepared in the following manner. […] The human HDAC1 expression vector used was pcDNA3-HD1 (Yang, W. M., Yao, Y. L., Sun, […]. & Seto, E. (1997) J. Biol. Chem. 272, 28001-28007), the human HDAC4 expression vector used was pcDNA3-HD4 ([…]., Nagase, […]. Biol. Chem. 274, 11713-11720), and the murine HDAC6 expression vector used was pcDNA3-mHDA2/HDAC6 ([…]. Biol. Chem. 274, 2440-2445). After 24 hours of incubation, cells were recovered, washed with PBS, suspended in lysis buffer (50 mM Tris-HCl (pH 7.5), 120 mM NaCl, 5 mM EDTA, 0.5% Nonidet P-40), and sonicated. The supernatant was collected by centrifugation and then deprived of nonspecific proteins using Protein A/G plus agarose beads (Santa Cruz Biotechnologies, Inc.). Thereafter, anti-FLAG M2 antibody (Sigma-Aldrich Inc.) was added, and the reaction was allowed to proceed at 4° C. for 2 hours. To this were added agarose beads, the reaction was allowed to proceed at 4° C. for 3 hours, and the agarose beads were washed three times with lysis buffer and then once with HD buffer (20 mM Tris-HCl (pH 8.0), 150 mM NaCl, 10% glycerol). […] HDAC-inhibiting activity evaluation in each in vitro system was made as follows. Each test compound was dissolved in DMSO, a stock solution with a concentration of 10 mM was thus prepared and this was used as an inhibitor stock solution. The assay was carried out by incubating the HDAC solution and a coumarin-labeled acetylated histone peptide solution in the presence of the test compound at 37° C. for 30 minutes (reaction volume 20 μl). To the reaction mixture was added 30 μl of trypsin, and the aminomethylcoumarin released by the enzymatic reaction was assayed using a fluorescent plate reader. In a negative control assay, no inhibitor was added to the reaction system and the same procedure was carried out.

[1] = system: human wild type p21 promoter; assay: p21 promoter assay (luciferase) in MFLL-9 cells; format: cell-based; conditions: 20 hours, concentration giving 1000% luminescence relative to negative control (100%)
Protocol: As an HDAC-inhibiting activity in an […] system, the following measurement was carried out using the p21 promoter inducing activity as an index. MFLL-9 cells used in the experiment are cells stably retaining a fusion gene (Dr. B. Vogelstaein) from the human wild type p21 promoter and luciferase gene. They were cultured using phenol red-free DMEM supplemented with 10% FBS in a steam-saturated incubator at 37° C. in the presence of 5% carbon dioxide. These MFLL-9 cells were sowed onto a 96-well microplate at a cell density of 2×10^4 cells/well and, after 24 hours of cultivation in 99 μl, per well, of the medium mentioned above, each test compound solution was added, followed by 20 hours of incubation. […] In a negative control, the same procedure was carried out without adding any inhibitor to the reaction system.
Using Luciferase Assay Reagent (Promega), the intensity of the luminescence due to the product of the enzymatic reaction involving luciferase expressed within cells was measured.

[2] = system: brain tumor cell line SNB-75; assay: Human cancer cell line panel, proliferation (sulforhodamine B); format: cell-based; conditions: SNB-75, 2 days of cultivation; read-out: 50% inhibitory concentration, proliferation
Source text: (§1) The characteristics of the human cancer cell proliferation-inhibiting activity of the compounds of the present invention were examined by the “method of evaluating the mechanisms of action of compounds using a panel of human cancer cell lines” as proposed by Yamori et al. (cf. Gan to Kagaku Ryoho (Cancer and Chemotherapy) 29 Suppl. II (2002) and Cancer Chemother. Pharmacol. 52 Suppl. I, S74-79 (2003)).
(§2) This system includes […] (7 lung cancer, 6 stomach cancer, 5 colon cancer, 5 ovarian cancer, 6 brain tumor, […], 2 kidney cancer and 2 prostate cancer cell lines as well as one melanoma line) and the method comprises measuring the in vitro drug susceptibilities of those cancer cell lines and expressing the differences in drug susceptibility among the respective cancer cell lines as a fingerprint. […] By utilizing this property, it is possible to estimate the mechanisms of action of a compound. The above method is also characterized in that an anticancer substance showing new and unique mechanisms of action different from those of the existing anticancer agents can be selected.
(§3) Cancer cells of each cell line are sowed onto a 96-well plate, a sample solution is added on the next day and, after 2 days of cultivation, the cell proliferation is measured by colorimetry using sulforhodamine B. The deviations in effective concentration for the respective cancer cell lines from the mean effective drug concentration for the 39 cancer cell lines subjected to measurement are calculated and shown in the form a fingerprint.

[3] = system: colon cancer cell line HCC2998; assay: as above; format: cell-based; conditions: HCC2998, 2 days of cultivation; read-out: 50% inhibitory concentration, proliferation
Source text: as §1, §2, §3

[4] = system: colon cancer cell line HCT-116; assay: as above; format: cell-based; conditions: HCT-116, 2 days of cultivation; read-out: 50% inhibitory concentration, proliferation
Source text: as §1, §2, §3

[5] = system: colon cancer cell line HT-29; assay: as above; format: cell-based; conditions: HT-29, 2 days of cultivation; read-out: 50% inhibitory concentration, proliferation
Source text: as §1, §2, §3

[6] = system: lung cancer cell line DMS114; assay: as above; format: cell-based; conditions: DMS114, 2 days of cultivation; read-out: 50% inhibitory concentration, proliferation
Source text: as §1, §2, §3

[7] = system: lung cancer cell line NCI-H226; assay: as above; format: cell-based; conditions: NCI-H226, 2 days of cultivation; read-out: 50% inhibitory concentration, proliferation
Source text: as §1, §2, §3

[8] = system: lung cancer cell line NCI-H23; assay: as above; format: cell-based; conditions: NCI-H23, 2 days of cultivation; read-out: 50% inhibitory concentration, proliferation
Source text: as §1, §2, §3

[9] = system: lung cancer cell line NCI-H460; assay: as above; format: cell-based; conditions: NCI-H460, 2 days of cultivation; read-out: 50% inhibitory concentration, proliferation
Source text: as §1, §2, §3

[10] = system: lung cancer cell line NCI-H522; assay: as above; format: cell-based; conditions: NCI-H522, 2 days of cultivation; read-out: 50% inhibitory concentration, proliferation
Source text: as §1, §2, §3

[11] = system: ovarian cancer cell line OVCAR-5; assay: as above; format: cell-based; conditions: OVCAR-5, 2 days of cultivation; read-out: 50% inhibitory concentration, proliferation
Source text: as §1, §2, §3

[12] = system: ovarian cancer cell line OVCAR-8; assay: as above; format: cell-based; conditions: OVCAR-8, 2 days of cultivation; read-out: 50% inhibitory concentration, proliferation
Source text: as §1, §2, §3

[13] = system: prostate cancer cell line DU-145; assay: as above; format: cell-based; conditions: DU-145, 2 days of cultivation; read-out: 50% inhibitory concentration, proliferation
Source text: as §1, §2, §3

T1 sequence (P56524 whole entry): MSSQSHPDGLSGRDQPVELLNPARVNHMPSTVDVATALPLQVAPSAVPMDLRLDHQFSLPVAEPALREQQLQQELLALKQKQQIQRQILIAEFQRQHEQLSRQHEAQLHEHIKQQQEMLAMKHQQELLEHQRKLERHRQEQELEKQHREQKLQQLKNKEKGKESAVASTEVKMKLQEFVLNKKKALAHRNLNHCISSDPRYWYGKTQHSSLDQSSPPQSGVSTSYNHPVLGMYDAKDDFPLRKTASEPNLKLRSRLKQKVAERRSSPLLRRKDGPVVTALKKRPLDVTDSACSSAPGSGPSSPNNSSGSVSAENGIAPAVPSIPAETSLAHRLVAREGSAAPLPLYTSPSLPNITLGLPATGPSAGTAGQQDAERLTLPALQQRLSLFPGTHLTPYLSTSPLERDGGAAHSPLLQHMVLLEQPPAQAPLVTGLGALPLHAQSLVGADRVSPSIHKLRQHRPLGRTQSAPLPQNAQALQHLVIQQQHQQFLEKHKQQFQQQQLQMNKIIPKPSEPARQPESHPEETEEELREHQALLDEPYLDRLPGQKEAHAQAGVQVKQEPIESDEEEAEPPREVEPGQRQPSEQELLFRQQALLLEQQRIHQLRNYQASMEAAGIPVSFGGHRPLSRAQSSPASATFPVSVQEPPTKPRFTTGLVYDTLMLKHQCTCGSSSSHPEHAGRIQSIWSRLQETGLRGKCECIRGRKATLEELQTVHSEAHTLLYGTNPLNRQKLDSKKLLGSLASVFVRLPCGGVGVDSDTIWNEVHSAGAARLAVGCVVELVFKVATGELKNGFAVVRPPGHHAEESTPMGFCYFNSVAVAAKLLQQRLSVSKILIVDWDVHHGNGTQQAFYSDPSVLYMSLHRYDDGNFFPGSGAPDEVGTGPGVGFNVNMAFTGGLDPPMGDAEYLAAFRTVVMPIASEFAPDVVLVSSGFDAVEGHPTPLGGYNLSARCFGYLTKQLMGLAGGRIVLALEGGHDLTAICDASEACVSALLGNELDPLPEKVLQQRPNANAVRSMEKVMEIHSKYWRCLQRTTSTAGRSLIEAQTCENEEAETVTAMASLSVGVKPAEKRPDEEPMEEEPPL
T1 sequence (O15379 whole entry, further chain): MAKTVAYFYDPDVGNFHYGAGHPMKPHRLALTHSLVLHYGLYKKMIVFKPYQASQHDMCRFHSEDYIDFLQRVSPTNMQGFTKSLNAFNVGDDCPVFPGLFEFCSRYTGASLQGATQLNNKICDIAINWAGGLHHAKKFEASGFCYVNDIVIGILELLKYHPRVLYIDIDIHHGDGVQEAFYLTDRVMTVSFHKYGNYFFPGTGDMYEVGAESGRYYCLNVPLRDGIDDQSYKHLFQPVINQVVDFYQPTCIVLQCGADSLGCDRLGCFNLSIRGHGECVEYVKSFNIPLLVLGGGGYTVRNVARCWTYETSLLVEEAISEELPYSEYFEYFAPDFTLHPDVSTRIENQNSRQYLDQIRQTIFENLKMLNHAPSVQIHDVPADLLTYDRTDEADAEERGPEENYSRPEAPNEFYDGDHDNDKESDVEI

SMILES	IC50 (human HDAC4) [nM]	p21 promoter activity EC1000 [1] [µM]	IC50 [2] [nM]	IC50 [3] [nM]	IC50 [4] [nM]	IC50 [5] [nM]	IC50 [6] [nM]	IC50 [7] [nM]	IC50 [8] [nM]	IC50 [9] [nM]	IC50 [10] [nM]	IC50 [11] [nM]	IC50 [12] [nM]	IC50 [13] [nM]
CC1(C)NC(=O)[C@H](CCCCCSCc2ccncc2)NC(=O)[C@H]2CCCN2C(=O)[C@H](Cc2ccccc2)NC1=O [Ky-26, cyclo(-L-Am7(4-pyridylmethyl)-Aib-L-Phe-D-Pro-)]	25	0.010	≤ 100	≤ 100	≤ 100	≤ 100	≤ 100	≤ 100	≤ 100	≤ 100	≤ 10	≤ 100	≤ 100	≤ 100
CC(=O)CSCCCCC[C@@H]1NC(=O)[C@H]2CCCN2C(=O)[C@H](Cc2ccccc2)NC(=O)C(C)(C)NC1=O [Ky-72, cyclo(-L-Am7(acetonyl)-Aib-L-Phe-D-Pro-)]	1600	0.031	≤ 100	≤ 100	≤ 10	≤ 100	≤ 100	≤ 100	≤ 100	≤ 100	≤ 10	≤ 100	≤ 100	≤ 100
